Where “and” joins values, the source holds several entries; their conditions need not be identical. Equal entries are not always repeated.
Tests used:
[1] = Lobeline conversion to epimer in the buffer system used at 37° C. in the VMAT2 uptake study (HPLC); format: physicochemical; details: for Epimer %: VMAT2 uptake buffer, 37° C.
[2] = Pharmacokinetics of lobeline and epimer in human subjects after sublingual lobeline administration (7.5, 15, 30 mg); details: for CL/F (extravascular clearance): epimer
Source text: The pharmacokinetics of lobeline and lobeline epimer were examined in eight human subjects (Sub) after sublingual lobeline administration.

[3] = Lobeline conversion to epimer in deionized water (HPLC); format: physicochemical
Experimental: Extensive in vitro studies on the epimerization of lobeline were conducted in a variety of aqueous media. […] The concentration of the lobeline solution (500 mL) was ca. 0.5 mg/mL, and 1.5 mL aliquot parts were removed in triplicate at each time point and analyzed by HPLC. Corresponding pH measurements were performed with a Coming Model 240 pH meter.

[4] = epimer in plasma, individual human subjects, sublingual lobeline 7.50 mg
[5] = epimer in plasma, individual human subjects, sublingual lobeline 15.0 mg
[6] = epimer in plasma, individual human subjects, sublingual lobeline 30.0 mg
[7] = individual human subjects, sublingual lobeline 7.50 mg
[8] = individual human subjects, sublingual lobeline 15.0 mg
[9] = individual human subjects, sublingual lobeline 30.0 mg

CN1[C@H](CC(=O)c2ccccc2)CCC[C@H]1C[C@H](O)c1ccccc1 (single isomer, unassigned; epimer 2) [Epimer, 2-[6S-(2S-hydroxy-2-phenyl-ethyl)-1-methyl-piperidin-2S-yl]-1-phenyl-ethanone]
final component concentration (as a function of the area under the curve) ([1]; VMAT2 uptake buffer (HEPES), 2 hour incubation at 37° C.): 30% | Epimer % ([1]; T0, sample age 0:01): 1.76% | Epimer % ([1]; T5, sample age 0:05): 3.34% | Epimer % ([1]; T10, sample age 0:10): 5.47% | Epimer % ([1]; T15, sample age 0:15): 8.62% | Epimer % ([1]; T25, sample age 0:25): 13.2% | Epimer % ([1]; T30, sample age 0:30): 14.9% | Epimer % ([1]; T35, sample age 0:35): 16.2% | Epimer % ([1]; T40, sample age 0:40): 17.7% | Epimer % ([1]; T45, sample age 0:45): 18.9% | Epimer % ([1]; T50, sample age 0:50): 20.1% | Epimer % ([1]; T55, sample age 0:55): 21.0% | Epimer % ([1]; T60, sample age 1:00): 22.1% | Epimer % ([1]; T70, sample age 1:10): 24.3% | Epimer % ([1]; T80, sample age 1:20): 26.1% | Epimer % ([1]; T90, sample age 1:31): 26.9% | Epimer % ([1]; T100, sample age 1:40): 28.0% | Epimer % ([1]; T110, sample age 1:50): 29.2% | Epimer % ([1]; T120, sample age 2:00): 30.3% | dose linearity of Cmax and CL/F ([2]; dose range from 7.5 to 30 mg, sublingual, human): Linear kinetics | AUC(0-∞) [2, 4]: 11.92 ng·h/mL | AUCext (percent of AUC(0-∞) determined by extrapolation) [2, 4]: 40.22% and 37.47% and 21.02% and 13.37% and 29.10% and 11.02% and 21.05% and 22.14% | Tlast (time of last measurable plasma concentration) [2, 4]: 2.00 hr and 3.00 hr (4×) and 6.00 hr and 12.00 hr and 4.00 hr | λz (terminal exponential rate constant) [2, 4]: 0.6868 h⁻¹ and 0.3858 h⁻¹ and 0.6119 h⁻¹ and 0.3882 h⁻¹ and 0.531 h⁻¹ and 0.2004 h⁻¹ and 0.6101 h⁻¹ and 0.489 h⁻¹ | AUC(0-∞) [2, 5]: 24.30 ng·h/mL | AUCext (percent of AUC(0-∞) determined by extrapolation) [2, 5]: 10.70% and 12.80% and 22.39% and 5.75% and 10.95% and 14.68% and 8.64% and 8.10% | Tlast (time of last measurable plasma concentration) [2, 5]: 4.17 hr and 4.00 hr (3×) and 8.00 hr and 11.00 hr and 4.03 hr and 6.00 hr | λz (terminal exponential rate constant) [2, 5]: 0.6055 h⁻¹ and 0.6196 h⁻¹ and 0.4338 h⁻¹ and 0.3591 h⁻¹ and 0.684 h⁻¹ and 0.1908 h⁻¹ and 0.7266 h⁻¹ and 0.5175 h⁻¹ | AUC(0-t) [2, 6]: 83.89 ng·h/mL and 20.12 ng·h/mL and 87.17 ng·h/mL | AUCext (percent of AUC(0-∞) determined by extrapolation) [2, 6]: 3.89% and 10.44% and 5.56% and 15.37% and 11.12% and 3.26% and 7.85% and 5.01% | Tlast (time of last measurable plasma concentration) [2, 6]: 6.00 hr (2×) and 4.00 hr (3×) and 8.00 hr (2×) and 22.75 hr | λz (terminal exponential rate constant) [2, 6]: 0.6184 h⁻¹ and 0.6931 h⁻¹ and 0.5281 h⁻¹ and 0.25 h⁻¹ and 0.7194 h⁻¹ and 0.1513 h⁻¹ and 0.8194 h⁻¹ and 0.3741 h⁻¹ | CL/F (extravascular clearance) [2, 7]: 282.7 mL/min/kg and 110.1 mL/min/kg and 240.7 mL/min/kg and 70.7 mL/min/kg and 159.2 mL/min/kg and 17.4 mL/min/kg and 225.5 mL/min/kg and 144.2 mL/min/kg | CL/F (extravascular clearance) [2, 8]: 188.2 mL/min/kg and 120.8 mL/min/kg and 161.7 mL/min/kg and 56.2 mL/min/kg and 175.6 mL/min/kg and 14.5 mL/min/kg and 180.2 mL/min/kg and 97.3 mL/min/kg | CL/F (extravascular clearance) [2, 9]: 153.7 mL/min/kg and 184.5 mL/min/kg and 146.9 mL/min/kg and 55.5 mL/min/kg and 285.9 mL/min/kg and 13.7 mL/min/kg and 259.4 mL/min/kg and 74.9 mL/min/kg | ratio of the cumulative amount of urinary epimer to lobeline ([2]; human subjects, sublingual lobeline): approximately 0.5 | Combined urinary excretion of lobeline and epimer ([2]; human, in vivo): ≤ 0.5% | AUC(0-inf) ([2]; human, in vivo, 7.5 mg, epimer in plasma, individual human subjects, sublingual lobeline 7.50 mg): 13.2 ng·h/mL | AUC(0-inf) ([2]; human, in vivo, 15 mg, epimer in plasma, individual human subjects, sublingual lobeline 15.0 mg): 17.3 ng·h/mL | AUC(0-inf) ([2]; human, in vivo, 30 mg, epimer in plasma, individual human subjects, sublingual lobeline 30.0 mg): 91.8 ng·h/mL | half-life ([2]; human, in vivo, 30 mg, Terminal exponential phase half-life (T1/2), average): ~1.7 h | half-life ([2]; human, in vivo, 30 mg, Terminal exponential phase half-lives (T1/2 values), range): 1 to 5 h | Tmax ([2]; human, in vivo, 30 mg, Tmax values, range): 0.25 to 3 h | Tmax ([2]; human, in vivo, 30 mg, Tmax, average): 1.3 h | half-life ([2]; human, in vivo, mean T1/2 values, human subjects, sublingual lobeline): ~2 h | ratio of epimer to lobeline in plasma (Cmax and area under the curve; x to 1) ([2]; humans receiving sublingual lobeline 7.5, 15 and 30 mg): 8-10 and 8 to 10 | AUC(0-∞) Ratio (Epi/Lob) [2, 7]: 8.23 and 7.66 and 4.64 and 8.82 and 4.97 and 10.29 and 6.66 and 7.29 | AUC(0-∞) Ratio (Epi/Lob) [2, 8]: 10.60 and 7.17 and 8.44 and 9.79 and 6.74 and 12.94 and 6.63 and 10.97 | AUC(0-∞) Ratio (Epi/Lob) [2, 9]: 11.77 and 6.33 and 8.63 and 10.30 and 6.07 and 11.84 and 9.02 and 11.44 | % Epimer (Mean ± SD) ([3]; Solution 1 (Lobeline in “fresh” DI Water), time 0, pH 6.02): 0.83% | % Epimer (Mean ± SD) ([3]; Solution 1 (“fresh” DI Water), 15 min, pH 6.03-6.24): 0.83 ± 0.054% | % Epimer (Mean ± SD) ([3]; Solution 1 (“fresh” DI Water), 30 min, pH 6.02-6.24): 0.99 ± 0.164% | % Epimer (Mean ± SD) ([3]; Solution 1 (“fresh” DI Water), 45 min, pH 6.13-6.37): 0.95 ± 0.144% | % Epimer (Mean ± SD) ([3]; Solution 1 (“fresh” DI Water), 1 h, pH 6.26-6.52): 1.00 ± 0.196% | % Epimer (Mean ± SD) ([3]; Solution 1 (“fresh” DI Water), 80 min, pH 6.19-6.50): 1.46 ± 0.112% | % Epimer (Mean ± SD) ([3]; Solution 1 (“fresh” DI Water), 100 min, pH 6.16-6.50): 1.50 ± 0.139% | % Epimer (Mean ± SD) ([3]; Solution 1 (“fresh” DI Water), 2 h, pH 5.63-5.88): 1.58 ± 0.599% | % Epimer (Mean ± SD) ([3]; Solution 2 (Lobeline in “8-h” DI Water), time 0, pH 7.87): 1.03% | % Epimer (Mean ± SD) ([3]; Solution 2 (“8-h” DI Water), 15 min, pH 7.78-8.21): 0.66 ± 0.273% | % Epimer (Mean ± SD) ([3]; Solution 2 (“8-h” DI Water), 30 min, pH 7.58-7.85): 0.52 ± 0.214% | % Epimer (Mean ± SD) ([3]; Solution 2 (“8-h” DI Water), 45 min, pH 7.66-7.68): 0.65 ± 0.056% | % Epimer (Mean ± SD) ([3]; Solution 2 (“8-h” DI Water), 1 h, pH 6.84-7.11): 0.80 ± 0.087% | % Epimer (Mean ± SD) ([3]; Solution 2 (“8-h” DI Water), 80 min, pH 6.53-6.79): 0.90 ± 0.150% | % Epimer (Mean ± SD) ([3]; Solution 2 (“8-h” DI Water), 100 min, pH 6.24-6.51): 1.01 ± 0.207% | % Epimer (Mean ± SD) ([3]; Solution 2 (“8-h” DI Water), 2 h, pH 6.21-6.49): 1.22 ± 0.257% | ratio of epimer to lobeline obtained in vitro ([3]; in vitro with water at pH 7): approximately 0.5 | change in epimer concentration ([3]; lobeline dissolved in deionized water, over a 2-h period at 25° C.): < 1%
